The first series deals with TP53-binding protein 1 (Homo sapiens, UniProt Q12888). The series is described as follows: Displacement of Biotin-p53K381acK382me2 from N-terminal his6-tagged 53BP1 (1484 to 1603 residues) (unknown origin) expressed in Rosetta2 BL21 (DE3) pLysS competent cells by TR-FRET assay. It counts as single protein.
Chain of TP53-binding protein 1 (Q12888 whole entry, the tested form may be a part): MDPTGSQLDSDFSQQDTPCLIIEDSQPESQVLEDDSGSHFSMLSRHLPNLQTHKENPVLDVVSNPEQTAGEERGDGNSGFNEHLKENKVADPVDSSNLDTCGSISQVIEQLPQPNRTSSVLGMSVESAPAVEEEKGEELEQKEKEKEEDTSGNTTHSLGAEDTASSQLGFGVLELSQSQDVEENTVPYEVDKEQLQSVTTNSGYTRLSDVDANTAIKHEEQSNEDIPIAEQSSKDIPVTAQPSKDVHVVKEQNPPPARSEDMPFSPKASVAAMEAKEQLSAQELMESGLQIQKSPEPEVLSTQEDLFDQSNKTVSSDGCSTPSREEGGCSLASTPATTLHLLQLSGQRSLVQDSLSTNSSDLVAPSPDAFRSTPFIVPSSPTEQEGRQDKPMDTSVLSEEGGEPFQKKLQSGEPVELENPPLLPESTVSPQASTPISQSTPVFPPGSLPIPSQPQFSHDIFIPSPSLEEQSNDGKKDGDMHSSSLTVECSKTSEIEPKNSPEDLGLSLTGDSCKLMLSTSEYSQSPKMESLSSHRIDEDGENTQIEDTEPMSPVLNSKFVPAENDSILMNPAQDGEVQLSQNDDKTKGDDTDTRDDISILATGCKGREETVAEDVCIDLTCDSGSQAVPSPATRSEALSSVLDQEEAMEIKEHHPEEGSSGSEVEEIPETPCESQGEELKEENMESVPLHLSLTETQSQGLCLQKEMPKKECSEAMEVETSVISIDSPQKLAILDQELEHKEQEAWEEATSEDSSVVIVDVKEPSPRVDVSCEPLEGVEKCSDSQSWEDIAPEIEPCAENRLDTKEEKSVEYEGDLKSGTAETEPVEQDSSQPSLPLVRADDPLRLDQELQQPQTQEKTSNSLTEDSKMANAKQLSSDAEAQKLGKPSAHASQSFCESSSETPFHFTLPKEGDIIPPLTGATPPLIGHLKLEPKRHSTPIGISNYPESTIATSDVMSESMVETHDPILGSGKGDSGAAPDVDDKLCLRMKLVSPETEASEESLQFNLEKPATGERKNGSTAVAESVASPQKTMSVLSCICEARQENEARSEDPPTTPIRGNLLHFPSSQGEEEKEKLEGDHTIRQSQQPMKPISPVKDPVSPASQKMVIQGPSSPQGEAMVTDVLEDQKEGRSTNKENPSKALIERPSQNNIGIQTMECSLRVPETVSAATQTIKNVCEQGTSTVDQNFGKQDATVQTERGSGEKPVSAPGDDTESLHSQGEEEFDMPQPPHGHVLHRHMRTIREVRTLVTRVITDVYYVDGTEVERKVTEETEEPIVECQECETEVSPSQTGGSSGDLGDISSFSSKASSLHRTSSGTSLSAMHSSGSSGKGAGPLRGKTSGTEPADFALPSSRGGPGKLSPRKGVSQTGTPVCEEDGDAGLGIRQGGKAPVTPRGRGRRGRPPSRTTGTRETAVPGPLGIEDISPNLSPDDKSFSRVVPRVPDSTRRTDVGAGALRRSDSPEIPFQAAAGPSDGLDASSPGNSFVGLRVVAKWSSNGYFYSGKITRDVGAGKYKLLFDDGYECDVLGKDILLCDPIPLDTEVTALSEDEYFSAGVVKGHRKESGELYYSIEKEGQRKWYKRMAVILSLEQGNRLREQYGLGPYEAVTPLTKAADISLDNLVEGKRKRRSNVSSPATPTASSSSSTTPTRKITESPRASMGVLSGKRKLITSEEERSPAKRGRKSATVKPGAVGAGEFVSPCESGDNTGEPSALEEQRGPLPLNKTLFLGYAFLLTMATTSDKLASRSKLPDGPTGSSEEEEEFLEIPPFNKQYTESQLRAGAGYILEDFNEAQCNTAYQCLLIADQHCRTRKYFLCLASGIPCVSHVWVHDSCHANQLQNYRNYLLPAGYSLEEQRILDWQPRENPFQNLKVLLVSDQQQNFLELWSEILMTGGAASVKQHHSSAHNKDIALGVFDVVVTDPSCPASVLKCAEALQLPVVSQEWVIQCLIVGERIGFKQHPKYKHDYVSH
Settings: not given
Compound `CN1CCN(c2ccnc(C(=O)N3CCC[C@H](C(=O)Nc4cccc(-c5cccc(C(N)=O)c5)c4)C3)c2)CC1` gave an IC50 of 1.9 µM.

For the compound `CN1CCN(c2ccnc(C(=O)N3CCC[C@H](C(=O)Nc4cccc(-c5ccc6[nH]ncc6c5)c4)C3)c2)CC1`, the IC50 worked out at 15 µM.

In turn, `CCN1CCN(c2ccnc(C(=O)N3CCC[C@H](C(=O)Nc4cccc(-c5ccc(C(N)=O)cc5)c4)C3)c2)CC1` showed a concentration for half-maximal inhibition (IC50) of 1.4 µM.

`CC(C)N1CCN(c2ccnc(C(=O)N3CCC[C@H](C(=O)Nc4cccc(-c5ccc(C(N)=O)cc5)c4)C3)c2)CC1` displayed an IC50 of 4.1 µM.

`CN1CCN(c2ccnc(C(=O)N3CCC[C@H](C(=O)Nc4cccc(-c5ccc6c(c5)CCN6)c4)C3)c2)CC1` had an IC50 of 7.8 µM. This IC50 lies about 1.9-fold higher than the previous one.

Regarding `CNC(=O)[C@H]1CCCN(C(=O)c2cc(N3CCN(C)CC3)ccn2)C1`, the IC50 was above 100 µM.

Regarding `CNC(=O)c1cccc(-c2cccc(NC(=O)[C@H]3CCCN(C(=O)c4cc(N5CCN(C)CC5)ccn4)C3)c2)c1`, the IC50 was found to be 11 µM. In other words, the double-digit micromolar range.

`CN1CCN(c2ccnc(C(=O)N3CC[C@H]3C(=O)Nc3cccc(-c4ccc(C(N)=O)cc4)c3)c2)CC1` returned an IC50 of 5.7 µM.

In turn, `CN1CCN(c2ccnc(C(=O)N3CCC[C@@H](C(=O)Nc4cccc(-c5ccc(C(N)=O)cc5)c4)C3)c2)CC1` returned an IC50 of 15 µM. This IC50 is about 2.6-fold higher than that of the compound before.

Compound `CN1CCN(c2ccnc(C(=O)N3CCC[C@H](C(=O)Nc4cccc(-c5ccccc5)n4)C3)c2)CC1` showed an IC50 of 7.4 µM.

In the case of `CN1CCN(c2ccnc(C(=O)N3CCC[C@H](C(=O)Nc4ccccc4)C3)c2)CC1`, the IC50 amounted to 22 µM.

Turning to `CN1CCN(c2ccnc(C(=O)N3CCC[C@H](C(=O)Nc4cccc(-c5ccccn5)c4)C3)c2)CC1`, the IC50 stood at 18 µM.

For the compound `COC(=O)c1ccc(-c2cccc(NC(=O)[C@H]3CCCN(C(=O)c4cc(N5CCN(C)CC5)ccn4)C3)c2)cc1`, the IC50 is 10 µM.

In the case of `CN1CCN(c2ccnc(C(=O)N3CCC[C@H](C(=O)Nc4cccc(-c5ccc6c(c5)CNC6=O)c4)C3)c2)CC1`, the IC50 was 3.4 µM.

`CN1CCN(c2ccnc(C(=O)N3CC[C@H](C(=O)Nc4cccc(-c5ccc(C(N)=O)cc5)c4)C3)c2)CC1`: the IC50 amounted to 2.2 µM.

`CN1CCN(c2ccnc(C(=O)N3CCC[C@H](C(=O)Nc4cccc(N5CCNCC5)c4)C3)c2)CC1` gave an IC50 of 44 µM.

In the case of `CCCN1CCN(c2ccnc(C(=O)N3CCC[C@H](C(=O)Nc4cccc(-c5ccc(C(N)=O)cc5)c4)C3)c2)CC1`, the IC50 was 14 µM.

As to `CN1CCN(c2ccnc(C(=O)N3CCC[C@H](C(=O)Nc4cccc(-c5ccc6c(c5)CCCN6)c4)C3)c2)CC1`, the IC50 was determined as 12 µM.

Consider `CN1CCN(c2ccnc(C(=O)N3CCC[C@H](C(=O)Nc4cccc(-c5ccccc5)c4)C3)c2)CC1`, for which the IC50 stood at 3.8 µM.

As to `CNC(=O)c1ccc(-c2cccc(NC(=O)[C@H]3CCCN(C(=O)c4cc(N5CCN(C)CC5)ccn4)C3)c2)cc1`, the IC50 was 5.6 µM.

`CN1CCN(c2ccnc(C(=O)N3CCC[C@H](C(=O)Nc4cccc(N5CCOCC5)c4)C3)c2)CC1` gave an IC50 of 32 µM. Against the preceding compound, the IC50 is about 5.7-fold higher.

As for `CN1CCN(c2ccnc(C(=O)N3CCC[C@H](C(=O)Nc4cccc(-c5ccc6[nH]cnc6c5)c4)C3)c2)CC1`, the IC50 came to 38 µM.

`CN1CCN(c2ccnc(C(=O)N3CCC[C@H](C(=O)Nc4cccc(-c5ccc6c(c5)CCNC6)c4)C3)c2)CC1` showed an IC50 of 28 µM.

In turn, `CN1CCN(c2ccnc(C(=O)N3CCC[C@H](C(=O)Nc4cncc(-c5ccccc5)c4)C3)c2)CC1` yielded an IC50 of 5.9 µM.

For `COC(=O)c1cccc(-c2cccc(NC(=O)[C@H]3CCCN(C(=O)c4cc(N5CCN(C)CC5)ccn4)C3)c2)c1`, the IC50 was 10 µM.

Compound `CN1CCN(c2ccnc(C(=O)N3CCC[C@@H]3C(=O)Nc3cccc(-c4ccc(C(N)=O)cc4)c3)c2)CC1` gave an IC50 of 5 µM.

Regarding `CN1CCN(c2ccnc(C(=O)N3CCC[C@H](C(=O)Nc4cccc(-c5ccc(C(=O)O)cc5)c4)C3)c2)CC1`, the IC50 amounted to 8.1 µM. This IC50 lies about 1.6-fold higher than the previous one.

`CN1CCN(c2ccnc(C(=O)N3CCC[C@H](C(=O)Nc4cc(-c5cccnc5)ncn4)C3)c2)CC1` registered an IC50 above 100 µM.

Regarding `CN1CCN(c2ccnc(C(=O)N3CCC[C@H](C(=O)Nc4cccc(-c5cccc(C(=O)O)c5)c4)C3)c2)CC1`, the IC50 amounted to 83 µM. This lies in the double-digit micromolar range.

`CN1CCN(c2ccnc(C(=O)N3CCC[C@H](C(=O)Nc4cccc(-c5ccncc5)c4)C3)c2)CC1` returned an IC50 of 6.6 µM.

For `CN1CCN(c2cccc(C(=O)N3CCC[C@H](C(=O)Nc4cccc(-c5ccc(C(N)=O)cc5)c4)C3)c2)CC1`, the IC50 is 1.3 µM.

A further series relates to TERT-RPE1. The series is described as follows: Cytotoxicity against human RPE-1 cells assessed as reduction in cell viability measured upto 200 uM by celltiterglo 2.0 assay. It counts as toxicity, cell-based. The note with it: tert-rpe1, 200 µM.
Regarding `CN1CCN(c2ccnc(C(=O)N3CCC[C@H](C(=O)Nc4cccc(-c5ccc6c(c5)CNC6)c4)C3)c2)CC1.Cl.Cl.Cl`, the Activity result is “Non-Toxic”.

The subject of a further series is HEK-293T. The series is described as follows: Cytotoxicity against HEK293T cells assessed as reduction in cell viability measured upto 200 uM by celltiterglo 2.0 assay. In kind it is toxicity, cell-based. Conditions: human.
As to `CN1CCN(c2ccnc(C(=O)N3CCC[C@H](C(=O)Nc4cccc(-c5ccc6c(c5)CNC6)c4)C3)c2)CC1.Cl.Cl.Cl`, the Activity result is listed as “Non-Toxic”.

Source of the values: ChEMBL document CHEMBL5370599, “Discovery of a 53BP1 Small Molecule Antagonist Using a Focused DNA-Encoded Library Screen” (J Med Chem, 2023).
